Source: the supplement of paper PMC12137928
Where a name gives a salt, the structure may show the parent alone.

Tested on: HCT116
Settings: 72 h
Summary of the method: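 HCT116 cells went into 1536-well plates at 250 per well. CellTiter-Glo luminescence was expressed relative to vehicle (0%) and positive control (-100%) and then pattern-corrected. Both IC50 and maximal efficacy were taken from four-parameter Hill fits.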

SMILES	IC50 cell viability (ICRF193 0 nM) [µM]	IC50 cell viability (ICRF193 200 nM) [µM]
C#C[C@]1(O)CC[C@H]2[C@@H]3CCC4=CC(=NO)CC[C@@H]4[C@H]3CC[C@@]21CC [Norgestimate metabolite Norelgestromin]	> 45.8	> 45.8
C#CC1(O)CC[C@H]2[C@@H]3CCC4=CC(=O)CC[C@@H]4[C@H]3CC[C@@]21CC (stereo partly drawn) [Norgestrel]	> 45.8	> 45.8
CCC(=O)C(CCN(C)C)(c1ccccc1)c1ccccc1 [Normethadone]	> 45.8	> 45.8
NCC(O)c1cccc(O)c1 (stereo not drawn) [Norphenylephrine hydrochloride]	> 45.8	> 45.8
COc1ccc2c(c1OC)C(=O)O[C@@H]2[C@H]1c2c(cc3c(c2OC)OCO3)CCN1C [Noscapine]	> 45.8	> 45.8
CO[C@@H]1[C@@H](OC(N)=O)[C@@H](O)[C@H](Oc2ccc3c(O)c(NC(=O)c4ccc(O)c(CC=C(C)C)c4)c(=O)oc3c2C)OC1(C)C [Novobiocin sodium]	> 45.8	> 45.8
NCCC[C@H](NC(=O)[C@@H]1CCCN1C(=O)[C@@H]1CSSC[C@H](N)C(=O)N[C@@H](Cc2ccc(O)cc2)C(=O)N[C@@H](Cc2ccccc2)C(=O)N[C@@H](CCC(N)=O)C(=O)N[C@@H](CC(N)=O)C(=O)N1)C(=O)NCC(N)=O [ORNIPRESSIN]	> 45.8	> 45.8
NCCC[C@H](N)C(=O)O [ORNITHINE HYDROCHLORIDE]	> 45.8	> 45.8
CN1CCCN=C1/C=C/c1cccc(O)c1 [OXANTEL PAMOATE]	> 45.8	> 45.8
CNc1ncc(-c2ccc3c(=O)c(C(=O)O)cn(C4CC4)c3c2C)cc1C [OZENOXACIN]	> 45.8	> 45.8
CC1CC(=O)NN=C1c1ccc(NCC(C)(C)NCC(O)COc2cc(Cl)ccc2C#N)cc1 (stereo not drawn) [Oberadilol]	> 45.8	> 45.8
CNS(=O)(=O)C[C@H]1CC[C@H](N(C)c2[nH]cnc3nccc2-3)CC1 [Oclacitinib]	> 45.8	> 45.8
CCCCCCCCCCCCCCCCCC(=O)OCC(C)O (stereo not drawn) [Octadecanoic acid, monoester with 1,2-propanediol]	> 45.8	> 45.8
CCCCCCCCCCCCCCCCCC(=O)O [Octadecanoic acid]	> 45.8	> 45.8
CCCCCCCC(=O)O [Octanoic acid]	> 45.8	> 45.8
CCCCC(CC)COC(=O)C=Cc1ccc(OC)cc1 (stereo not drawn) [Octinoxate]	> 45.8	> 45.8
CCCCC(CC)COC(=O)C(C#N)=C(c1ccccc1)c1ccccc1 (stereo not drawn) [Octocrylene]	> 45.8	> 45.8
NCC(O)c1ccc(O)cc1 (stereo not drawn) [Octopamine]	> 45.8	> 45.8
COC(=O)CCCCC(CCSS/C(CCO)=C(/C)N(C=O)Cc1cnc(C)nc1N)SC(C)=O (stereo not drawn) [Octotiamine]	> 45.8	> 45.8
C[C@@H](O)[C@@H]1NC(=O)[C@H](CCCCN)NC(=O)[C@@H](Cc2c[nH]c3ccccc23)NC(=O)[C@H](Cc2ccccc2)NC(=O)[C@@H](NC(=O)[C@H](N)Cc2ccccc2)CSSC[C@@H](C(=O)N[C@H](CO)[C@@H](C)O)NC1=O [Octreotide acetate]	> 45.8	> 45.8

SMILES	IC50 cell viability (ICRF193 0 nM) [µM]	IC50 cell viability (ICRF193 200 nM) [µM]
Cc1cc2c(s1)Nc1ccccc1N=C2N1CCN(C)CC1 [Olanzapine]	> 45.8	> 45.8
O=C(c1cc(Cc2n[nH]c(=O)c3ccccc23)ccc1F)N1CCN(C(=O)C2CC2)CC1 [Olaparib]	> 45.8	> 45.8
CCCc1nc(C(C)(C)O)c(C(=O)OCc2oc(=O)oc2C)n1Cc1ccc(-c2ccccc2-c2nnn[nH]2)cc1 [Olmesartan medoxomil]	> 45.8	> 45.8
CCCc1nc(C(C)(C)O)c(C(=O)O)n1Cc1ccc(-c2ccccc2-c2nnn[nH]2)cc1 [Olmesartan]	> 45.8	> 45.8
COc1ccc(CC(C)(C)NC[C@H](O)c2cc(O)cc3c2OCC(=O)N3)cc1 [Olodaterol]	> 45.8	> 45.8
CN(C)CC/C=C1/c2ccccc2COc2ccc(CC(=O)O)cc21 [Olopatadine hydrochloride]	> 45.8	> 45.8
Cc1[nH]c(=O)c(C#N)cc1-c1ccc2nccn2c1 [Olprinone]	> 45.8	> 45.8
O=C(O)c1cc(/N=N/c2ccc(O)c(C(=O)O)c2)ccc1O [Olsalazine sodium]	> 45.8	> 45.8
COC(=O)N[C@H](C(=O)N1CCC[C@H]1C(=O)Nc1ccc([C@@H]2CC[C@@H](c3ccc(NC(=O)[C@@H]4CCCN4C(=O)[C@@H](NC(=O)OC)C(C)C)cc3)N2c2ccc(C(C)(C)C)cc2)cc1)C(C)C [Ombitasvir]	> 45.8	> 45.8
COc1ccc2[nH]c([S+]([O-])Cc3ncc(C)c(OC)c3C)nc2c1 (stereo not drawn) [Omeprazole]	> 45.8	> 45.8
Cc1nccn1CC1CCc2c(c3ccccc3n2C)C1=O (stereo not drawn) [Ondansetron]	> 45.8	> 45.8
OCCN1CCN(CCCN2c3ccccc3C=Cc3ccccc32)CC1 [Opipramol dihydrochloride]	> 45.8	> 45.8
C[C@@H]1CN(c2c(F)c(F)c3c(=O)c(C(=O)O)cn(C4CC4)c3c2F)C[C@H](C)N1 [Orbifloxacin]	> 45.8	> 45.8
CCCCCCCCCCC[C@@H](C[C@@H]1OC(=O)[C@H]1CCCCCC)OC(=O)[C@H](CC(C)C)NC=O [Orlistat]	> 45.8	> 45.8
COc1cc(C)c(Cc2cnc(N)nc2N)cc1OC [Ormetoprim]	> 45.8	> 45.8
O=C(O)c1cc(=O)[nH]c(=O)[nH]1 [Orotic acid]	> 45.8	> 45.8
Cc1ccccc1C(OCCN(C)C)c1ccccc1 (stereo not drawn) [Orphenadrine dihydrogen citrate]	> 45.8	> 45.8
CCOC(=O)C1=C[C@@H](OC(CC)CC)[C@H](NC(C)=O)[C@@H](N)C1 [Oseltamivir Phosphate]	> 45.8	> 45.8
OCCOc1ccc(/C(=C(/CCCl)c2ccccc2)c2ccccc2)cc1 [Ospemifene]	> 45.8	> 45.8
O=C(O)c1nc(=O)[nH]c(=O)[nH]1 [Oteracil]	> 45.8	> 45.8

SMILES	IC50 cell viability (ICRF193 0 nM) [µM]	IC50 cell viability (ICRF193 200 nM) [µM]
C[C@]12CC[C@H]3[C@@H](CCC4=C(O)C(=O)CC[C@@H]43)[C@@H]1CC[C@@H]2OC(=O)CCC1CCCC1 [Oxabolone cipioncate]	> 45.8	> 45.8
Cc1onc(-c2ccccc2)c1C(=O)N[C@@H]1C(=O)N2[C@@H]1SC(C)(C)[C@@H]2C(=O)O [Oxacillin sodium]	> 45.8	> 45.8
O=C(O)C(=O)O.[NH-][C@@H]1CCCC[C@H]1[NH-].[Pt+2] [Oxaliplatin]	> 45.8	> 45.8
C[N+]1(CC2COC(c3ccccc3)(C3CCCCC3)O2)CCCCC1 (stereo not drawn) [Oxapium iodide]	> 45.8	> 45.8
O=C(O)CCc1nc(-c2ccccc2)c(-c2ccccc2)o1 [Oxaprozin]	> 45.8	> 45.8
CCN(CC)CCOCCOC(=O)C(CC)(CC)c1ccccc1 [Oxeladin Citrate]	> 45.8	> 45.8
CC[C@H]1C[C@H]2[C@@H]3CCC4=CC(=O)CC[C@@H]4[C@H]3CC[C@]2(C)[C@H]1O [Oxendolone]	> 45.8	> 45.8
CC[N+]1(C)[C@@H]2CC(OC(=O)[C@H](CO)c3ccccc3)C[C@H]1[C@@H]1O[C@@H]12 (stereo partly drawn) [Oxitropium Bromide]	> 45.8	> 45.8
C=CCOc1ccccc1OCC(O)CNC(C)C (stereo not drawn) [Oxprenolol hydrochloride]	> 45.8	> 45.8
CCN(CC)CC#CCOC(=O)C(O)(c1ccccc1)C1CCCCC1 (stereo not drawn) [Oxybutynin chloride]	> 45.8	> 45.8
Cc1cc(C(C)(C)C)c(O)c(C)c1CC1=NCCN1 [Oxymetazoline hydrochloride]	> 45.8	> 45.8
COc1cc2[nH]c(C)c(CCN3CCN(c4ccccc4)CC3)c2cc1OC [Oxypertine hydrochloride]	> 45.8	> 45.8
CN1CCCN=C1COC(=O)C(O)(c1ccccc1)C1CCCCC1 (stereo not drawn) [Oxyphencyclimine hydrochloride]	> 45.8	> 45.8
CC[N+](C)(CC)CCOC(=O)C(O)(c1ccccc1)C1CCCCC1 (stereo not drawn) [Oxyphenonium bromide]	> 45.8	> 45.8
CN(C)[C@@H]1C(O)=C(C(N)=O)C(=O)[C@@]2(O)C(O)=C3C(=O)c4c(O)cccc4[C@@](C)(O)[C@H]3[C@H](O)[C@@H]12 [Oxytetracycline]	> 45.8	> 45.8
CC[C@H](C)[C@@H]1NC(=O)[C@H](Cc2ccc(O)cc2)NC(=O)[C@@H](N)CSSC[C@@H](C(=O)N2CCC[C@H]2C(=O)N[C@@H](CC(C)C)C(=O)NCC(N)=O)NC(=O)[C@H](CC(N)=O)NC(=O)[C@H](CCC(N)=O)NC1=O [Oxytocin]	> 45.8	> 45.8
O=C(O)/C=C/c1ccc(Cn2ccnc2)cc1 [Ozagrel hydrochloride]	> 45.8	> 45.8
Cc1cc(O)ccc1C(C)(C)C [P-T-BUTYL-M-CRESOL]	> 45.8	> 45.8
CCC1(C)OC(=O)N(C)C1=O (stereo not drawn) [PARAMETHADIONE]	> 45.8	> 45.8
